Measurements reported in patent US5498632A, “Esters of acyl carnitines with long-chain aliphatic alcohols and pharmaceutical compositions containing same having antibacterial activity” (Sigma-Tau Industrie Farmaceutiche Riunite S.p.A., priority 1992, dated 1996).
Read-outs that look alike come from different tables or passages of the source.

Key:
Assay type in all cases: cell-based
[1] = tested on: Salmonella typhimurium (D.S.); test: MIC in broth, Gram- strains; settings: Salmonella enterica, 18 h, read-out: Minimal Inhibitory Concentration (MIC)
Protocol: (§1) MICs were determined by a standard microdilution test, using serial two-fold dilutions of the substances in Mueller-Hinton broth.
(§2) The inoculum was prepared from an overnight culture in Mueller-Hinton broth matching the 0.5 Mc Farland (turbidity) standard (BRAY W. E., Clinical Laboratory Methods, 5th Ed. C. V. MOSBY, St. Louis, Mo. 1957), and was adjusted to a final concentration of 5.0×10^4 colony-forming units/ml.
(§3) Equal volumes (0.1 ml) of both bacterial suspensions and substance solutions were distributed in microtiter plates (Falcon, 96 wells, round bottom), and then placed in a humidified incubator (37° C.) for 18 hours.
(§4) Evaluation of the Minimal Inhibitory Concentration (MIC) in broth of 16 new substances for Gram- bacterial strains.
(§5) The following strains were used: Enterobacter (1), Escherichia (3), Klebsiella (3), Proteus (3); Pseudomonas (2); Salmonella (2), Serratia (1).

[2] = tested on: Escherichia coli (92 F); test: MIC in broth, Gram- strains; settings: 18 h, E. coli (92 F), read-out: Minimal Inhibitory Concentration (MIC)
Protocol: as §1, §2, §3, §4, §5

[3] = tested on: Enterobacter aerogenes (UM); test: MIC in broth, Gram- strains; settings: Klebsiella aerogenes, 18 h, read-out: Minimal Inhibitory Concentration (MIC)
Protocol: as §1, §2, §3, §4, §5

[4] = tested on: Proteus vulgaris (UM); test: MIC in broth, Gram- strains; settings: 18 h, read-out: Minimal Inhibitory Concentration (MIC)
Protocol: as §1, §2, §3, §4, §5

[5] = tested on: Pseudomonas aeruginosa (3 E); test: MIC in broth, Gram- strains; settings: 18 h, read-out: Minimal Inhibitory Concentration (MIC)
Protocol: as §1, §2, §3, §4, §5

[6] = tested on: Bacillus pumilus (CN 607); test: MIC in broth, Gram+ strains; settings: B. pumilus (CN 607), Mueller-Hinton broth, 37° C., 18 hours, read-out: Minimal Inhibitory Concentration (MIC)
Protocol: (§6) Evaluation of the Minimal Inhibitory Concentration (MIC) in broth of 15 new substances for Gram+ bacterial strains.
(§7) The following strains were used: Staphylococcus aureus (4); Streptococcus faecalis (8); Bacillus pumilus (1); Bacillus subtilis (1).
as §1, §2, §3
(§8) The results, in terms of MIC values, resistant strain number and mean MIC values versus susceptible strains, are illustrated in Tables 1-6.

[7] = tested on: Streptococcus faecalis (501); test: MIC in broth, Gram+ strains; settings: Enterococcus faecalis; S. faecalis (501), Mueller-Hinton broth, 37° C., 18 hours; read-out: Minimal Inhibitory Concentration (MIC)
Protocol: as §6, §7, §1, §2, §3, §8

[8] = tested on: Staphylococcus aureus (ATCC 14154); test: MIC in broth, Gram+ strains; settings: ATCC14154, S. aureus (ATCC 14154), Mueller-Hinton broth, 37° C., 18 hours, read-out: Minimal Inhibitory Concentration (MIC)
Protocol: as §6, §7, §1, §2, §3, §8

[9] = tested on: Streptococcus faecalis (R 2); test: MIC in broth, Gram+ strains; settings: Enterococcus faecalis; S. faecalis (R 2), Mueller-Hinton broth, 37° C., 18 hours; read-out: Minimal Inhibitory Concentration (MIC)
Protocol: as §6, §7, §1, §2, §3, §8

[10] = tested on: Staphylococcus aureus (LC1); test: MIC in broth, Gram+ strains; settings: S. aureus (LC1), Mueller-Hinton broth, 37° C., 18 hours, read-out: Minimal Inhibitory Concentration (MIC)
Protocol: as §6, §7, §1, §2, §3, §8

[11] = tested on: Streptococcus faecalis (505); test: MIC in broth, Gram+ strains; settings: Enterococcus faecalis; S. faecalis (505), Mueller-Hinton broth, 37° C., 18 hours; read-out: Minimal Inhibitory Concentration (MIC)
Protocol: as §6, §7, §1, §2, §3, §8

[12] = tested on: Streptococcus faecalis (UM); test: MIC in broth, Gram+ strains; settings: Enterococcus faecalis; S. faecalis (UM), Mueller-Hinton broth, 37° C., 18 hours; read-out: Minimal Inhibitory Concentration (MIC)
Protocol: as §6, §7, §1, §2, §3, §8

[13] = tested on: Staphylococcus aureus (303); test: MIC in broth, Gram+ strains; settings: S. aureus (303), Mueller-Hinton broth, 37° C., 18 hours, read-out: Minimal Inhibitory Concentration (MIC)
Protocol: as §6, §7, §1, §2, §3, §8

[14] = tested on: Streptococcus faecalis (509); test: MIC in broth, Gram+ strains; settings: Enterococcus faecalis; S. faecalis (509), Mueller-Hinton broth, 37° C., 18 hours; read-out: Minimal Inhibitory Concentration (MIC)
Protocol: as §6, §7, §1, §2, §3, §8

[15] = tested on: Staphylococcus aureus (306 MR); test: MIC in broth, Gram+ strains; settings: S. aureus (306 MR), Mueller-Hinton broth, 37° C., 18 hours, read-out: Minimal Inhibitory Concentration (MIC)
Protocol: as §6, §7, §1, §2, §3, §8

[16] = tested on: Bacillus subtilis (ATCC 6051); test: MIC in broth, Gram+ strains; settings: ATCC6051, B. subtilis (ATCC 6051), Mueller-Hinton broth, 37° C., 18 hours, read-out: Minimal Inhibitory Concentration (MIC)
Protocol: as §6, §7, §1, §2, §3, §8

[17] = tested on: Streptococcus faecalis (516); test: MIC in broth, Gram+ strains; settings: Enterococcus faecalis; S. faecalis (516), Mueller-Hinton broth, 37° C., 18 hours; read-out: Minimal Inhibitory Concentration (MIC)
Protocol: as §6, §7, §1, §2, §3, §8

[18] = tested on: Streptococcus faecalis (518); test: MIC in broth, Gram+ strains; settings: Enterococcus faecalis; S. faecalis (518), Mueller-Hinton broth, 37° C., 18 hours; read-out: Minimal Inhibitory Concentration (MIC)
Protocol: as §6, §7, §1, §2, §3, §8

[19] = tested on: Streptococcus faecalis (519); test: MIC in broth, Gram+ strains; settings: Enterococcus faecalis; S. faecalis (519), Mueller-Hinton broth, 37° C., 18 hours; read-out: Minimal Inhibitory Concentration (MIC)
Protocol: as §6, §7, §1, §2, §3, §8

[20] = tested on: Gram+ bacterial strains; test: Mean MIC in broth and resistant strain number, Gram+ strains; settings: 18 h, versus susceptible strains
Protocol: as §6, §7, §1, §2, §3, §8

[21] = tested on: Gram- bacterial strains; test: Mean MIC in broth and resistant strain number, Gram- strains; settings: 18 h, read-out: Mean MIC values
Protocol: as §1, §2, §3, §4, §5

[22] = tested on: Klebsiella oxytoca (552); test: MIC in broth, Gram- strains; settings: 18 h, read-out: Minimal Inhibitory Concentration (MIC)
Protocol: as §1, §2, §3, §4, §5

[23] = tested on: Escherichia coli (76 F); test: MIC in broth, Gram- strains; settings: 18 h, E. coli (76 F), read-out: Minimal Inhibitory Concentration (MIC)
Protocol: as §1, §2, §3, §4, §5

[24] = Gram- strains, versus susceptible strains

SMILES | MIC [1] [µg/mL] | MIC [2] [µg/mL] | MIC [3] [µg/mL] | MIC [4] [µg/mL] | MIC [5] [µg/mL] | MIC [6] [µg/mL] | MIC [7] [µg/mL] | MIC [8] [µg/mL] | MIC [10] [µg/mL] | MIC [13] [µg/mL] | MIC [14] [µg/mL] | MIC [15] [µg/mL] | MIC [16] [µg/mL] | MIC [18] [µg/mL] | MIC [19] [µg/mL] | MIC [20] [µg/mL] | MIC [21, 24] [µg/mL] | MIC [22] [µg/mL] | MIC [21] [µg/mL] | MIC [23] [µg/mL] | other results
CCCCCCCCCCCCOC(=O)CC(C[N+](C)(C)C)OC(=O)CC(C)C (centres unmarked) [ST 1037] | > 100 | 100 | 25 | > 100 | > 100 | 1.56 | 3.12 | 3.12 | 3.12 | 3.12 | 1.56 | 3.12 | 3.12 | 1.56 | 1.56 | 2.34 | 62.5 |  |  |  | MIC [9]: 1.56 µg/mL; MIC [11]: 3.12 µg/mL; MIC [12]: 1.56 µg/mL; MIC [17]: 1.56 µg/mL
CCCCCCCCCCCCCOC(=O)CC(C[N+](C)(C)C)OC(=O)CCCCC (centres unmarked) [ST 1052] |  | > 100 | > 100 | > 100 | > 100 | 1.56 | 3.12 |  |  | 3.12 | 1.56 | 3.12 | 3.12 |  |  | 2.49 |  | > 100 | > 100 |  | 
CCCCCCCCCCCOC(=O)CC(C[N+](C)(C)C)OC(=O)CCCCCCC (centres unmarked) [ST 1000] | > 100 |  |  |  | > 100 |  |  | 1.56 | 1.56 |  |  | 3.12 |  | 3.12 | 3.12 | 2.49 |  | > 100 | > 100 | > 100 | 
CCCCCCCCCCCOC(=O)CC(C[N+](C)(C)C)OC(=O)CCCCCCCCCC (centres unmarked) [ST 982] | > 100 |  |  |  | > 100 |  |  |  | 3.12 | > 100 |  |  |  | 1.56 | 3.12 | 2.6 | > 100 | > 100 |  | > 100 | 
CCCCCCCCCCCCCCCC(=O)OC(CC(=O)OCCCCCCCCCCC)C[N+](C)(C)C (centres unmarked) [ST 983] | > 100 |  |  |  | > 100 |  |  |  | > 100 | > 100 |  |  |  | > 100 | > 100 | > 100 | > 100 | > 100 |  | > 100 | 
